This note sets out measurements from US20030199523A1, “Heterocyclic calcium in channel blockers” (priority 2002, published 2003).

What is called IC50 is the concentration needed to halve the response being measured.

Common to all, as to assay type: cell-based
Assay [1] has as its target T1, P/Q-type channels (α1A+α2δ+β1b) (Homo sapiens, UniProt O00555).
T1 construct: expressed in transfected cells; host or cells: HEK 293 (transient)
The assay is described as follows: Whole cell patch clamp block of P/Q-type calcium channels transiently expressed in HEK 293 cells. To be noted: step to +20 mV from holding potential −80 mV, 0.1 Hz, 5 mM barium external solution. The method, then: (§1) The method of Example 1 was followed with slight modifications as will be apparent from the description below.
(§2) N-type calcium channel blocking activity was assayed in human embryonic kidney cells, HEK 293, stably transfected with the rat brain N-type calcium channel subunits (α1B+α2δ+β1b cDNA subunits). Alternatively, N-type calcium channels (α1B+α2δ+β1b cDNA subunits), L-type channels (α1C+α2δ+β1b cDNA subunits) and P/Q-type channels (α1A+α2δ+β1b cDNA subunits) were transiently expressed in HEK 293 cells. Briefly, cells were cultured in Dulbecco's modified eagle medium (DMEM) supplemented with 10% fetal bovine serum, 200 U/ml penicillin and 0.2 mg/ml streptomycin at 37° C. with 5% CO2. At 85% confluency cells were split with 0.25% trypsin/1 mM EDTA and plated at 10% confluency on glass coverslips. At 12 hours the medium was replaced and the cells transiently transfected using a standard calcium phosphate protocol and the appropriate calcium channel cDNAs. Fresh DMEM was supplied and the cells transferred to 28° C./ 5% CO2. Cells were incubated for 1 to 2 days to whole cell recording.
(§3) Whole cell patch clamp experiments were performed using an Axopatch 200B amplifier (Axon Instruments, Burlingame, Calif.) linked to a personal computer equipped with pCLAMP software. […] Data were analyzed using Clampfit (Axon Instruments) and SigmaPlot 4.0 (Jandel Scientific).

The target of assay [2] is T2, rat brain N-type calcium channel (α1B+α2δ+β1b) (Rattus norvegicus, UniProt Q02294).
T2 construct: expressed in transfected cells
The assay is described as follows: Whole cell patch clamp block of N-type calcium channels expressed in HEK 293 cells. To be noted: step to +20 mV from holding potential −80 mV, 0.1 Hz, 5 mM barium external solution. The method, then: (§4) Antagonist activity was measured using whole cell patch recordings on human embryonic kidney cells either stably or transiently expressing rat α1B+α2b+β1b channels (N-type channels) with 5 mM barium as a charge carrier.
(§5) For transient expression, host cells, such as human embryonic kidney cells, HEK 293 (ATCC# CRL 1573) were grown in standard DMEM medium supplemented with 2 mM glutamine and 10% fetal bovine serum. HEK 293 cells were transfected by a standard calcium-phosphate-DNA coprecipitation method using the rat α1B+β1b+α2δ N-type calcium channel subunits in a vertebrate expression vector (for example, see Current Protocols in Molecular Biology).
(§6) After an incubation period of from 24 to 72 hrs the culture medium was removed and replaced with external recording solution (see below). Whole cell patch clamp experiments were performed using an Axopatch 200B amplifier (Axon Instruments, Burlingame, Calif.) linked to an IBM compatible personal computer equipped with pCLAMP software. Borosilicate glass patch pipettes (Sutter Instrument Co., Novato, Calif.) were polished (Microforge, Narishige, Japan) to a resistance of about 4 MΩ when filled with cesium methanesulfonate internal solution (composition in MM: 109 CsCH3SO4, 4 MgCl2, 9 EGTA, 9 HEPES, pH 7.2). Cells were bathed in 5 mM Ba^++ (in mM: 5 BaCl2, 1 MgCl2, 10 HEPES, 40 tetraethylammonium chloride, 10 glucose, 87.5 CsCl pH 7.2). Current data shown were elicited by a train of 100 ms test pulses at 0.066 Hz from −100 mV and/or −80 mV to various potentials (min. −20 mV, max. +30 mV). Drugs were perfused directly into the vicinity of the cells using a microperfusion system.
(§7) Normalized dose-response curves were fit (Sigmaplot 4.0, SPSS Inc., Chicago, Ill.) by the Hill equation to determine IC50 values. Steady-state inactivation curves were plotted as the normalized test pulse amplitude following 5 s inactivating prepulses at +10 mV increments. Inactivation curves were fit (Sigmaplot 4.0) with the Boltzman equation, Ipeak (normalized)=1/(1+exp((V−Vh)z/25.6)), where V and Vh are the conditioning and half inactivation potentials, respectively, and z is the slope factor.
as §1
(§8) N-type calcium channel blocking activity was assayed in human embryonic kidney cells, HEK 293, stably transfected with the rat brain N-type calcium channel subunits (α1B+α2δ+β1b cDNA subunits). Alternatively, N-type calcium channels (α1B+α2δ+β1b cDNA subunits), L-type channels (α1C+α2δ+β1b cDNA subunits) and P/Q-type channels (α1A+α2δ+β1b cDNA subunits) were transiently expressed in HEK 293 cells. […]
A general note: In patch-clamp work, channel activity is measured electrically.

In assay [3] the test system is rat brain N-type calcium channel (α1B+α2δ+β1b). Described as above. To be noted: N-type, L-type and P/Q-type channels compared. The method, then: as §4, §5, §6, §7, §1, §8
In assay [4] the target is T3, L-type channels (α1C+α2δ+β1b) (Homo sapiens, UniProt Q13936).
T3 construct: expressed in transfected cells; host or cells: HEK 293 (transient)
Briefly: Whole cell patch clamp block of L-type calcium channels transiently expressed in HEK 293 cells. To be noted: step to +20 mV from holding potential −80 mV, 0.1 Hz, 5 mM barium external solution. The method, then:
as §1, §2, §3

T1 sequence (O00555 whole entry): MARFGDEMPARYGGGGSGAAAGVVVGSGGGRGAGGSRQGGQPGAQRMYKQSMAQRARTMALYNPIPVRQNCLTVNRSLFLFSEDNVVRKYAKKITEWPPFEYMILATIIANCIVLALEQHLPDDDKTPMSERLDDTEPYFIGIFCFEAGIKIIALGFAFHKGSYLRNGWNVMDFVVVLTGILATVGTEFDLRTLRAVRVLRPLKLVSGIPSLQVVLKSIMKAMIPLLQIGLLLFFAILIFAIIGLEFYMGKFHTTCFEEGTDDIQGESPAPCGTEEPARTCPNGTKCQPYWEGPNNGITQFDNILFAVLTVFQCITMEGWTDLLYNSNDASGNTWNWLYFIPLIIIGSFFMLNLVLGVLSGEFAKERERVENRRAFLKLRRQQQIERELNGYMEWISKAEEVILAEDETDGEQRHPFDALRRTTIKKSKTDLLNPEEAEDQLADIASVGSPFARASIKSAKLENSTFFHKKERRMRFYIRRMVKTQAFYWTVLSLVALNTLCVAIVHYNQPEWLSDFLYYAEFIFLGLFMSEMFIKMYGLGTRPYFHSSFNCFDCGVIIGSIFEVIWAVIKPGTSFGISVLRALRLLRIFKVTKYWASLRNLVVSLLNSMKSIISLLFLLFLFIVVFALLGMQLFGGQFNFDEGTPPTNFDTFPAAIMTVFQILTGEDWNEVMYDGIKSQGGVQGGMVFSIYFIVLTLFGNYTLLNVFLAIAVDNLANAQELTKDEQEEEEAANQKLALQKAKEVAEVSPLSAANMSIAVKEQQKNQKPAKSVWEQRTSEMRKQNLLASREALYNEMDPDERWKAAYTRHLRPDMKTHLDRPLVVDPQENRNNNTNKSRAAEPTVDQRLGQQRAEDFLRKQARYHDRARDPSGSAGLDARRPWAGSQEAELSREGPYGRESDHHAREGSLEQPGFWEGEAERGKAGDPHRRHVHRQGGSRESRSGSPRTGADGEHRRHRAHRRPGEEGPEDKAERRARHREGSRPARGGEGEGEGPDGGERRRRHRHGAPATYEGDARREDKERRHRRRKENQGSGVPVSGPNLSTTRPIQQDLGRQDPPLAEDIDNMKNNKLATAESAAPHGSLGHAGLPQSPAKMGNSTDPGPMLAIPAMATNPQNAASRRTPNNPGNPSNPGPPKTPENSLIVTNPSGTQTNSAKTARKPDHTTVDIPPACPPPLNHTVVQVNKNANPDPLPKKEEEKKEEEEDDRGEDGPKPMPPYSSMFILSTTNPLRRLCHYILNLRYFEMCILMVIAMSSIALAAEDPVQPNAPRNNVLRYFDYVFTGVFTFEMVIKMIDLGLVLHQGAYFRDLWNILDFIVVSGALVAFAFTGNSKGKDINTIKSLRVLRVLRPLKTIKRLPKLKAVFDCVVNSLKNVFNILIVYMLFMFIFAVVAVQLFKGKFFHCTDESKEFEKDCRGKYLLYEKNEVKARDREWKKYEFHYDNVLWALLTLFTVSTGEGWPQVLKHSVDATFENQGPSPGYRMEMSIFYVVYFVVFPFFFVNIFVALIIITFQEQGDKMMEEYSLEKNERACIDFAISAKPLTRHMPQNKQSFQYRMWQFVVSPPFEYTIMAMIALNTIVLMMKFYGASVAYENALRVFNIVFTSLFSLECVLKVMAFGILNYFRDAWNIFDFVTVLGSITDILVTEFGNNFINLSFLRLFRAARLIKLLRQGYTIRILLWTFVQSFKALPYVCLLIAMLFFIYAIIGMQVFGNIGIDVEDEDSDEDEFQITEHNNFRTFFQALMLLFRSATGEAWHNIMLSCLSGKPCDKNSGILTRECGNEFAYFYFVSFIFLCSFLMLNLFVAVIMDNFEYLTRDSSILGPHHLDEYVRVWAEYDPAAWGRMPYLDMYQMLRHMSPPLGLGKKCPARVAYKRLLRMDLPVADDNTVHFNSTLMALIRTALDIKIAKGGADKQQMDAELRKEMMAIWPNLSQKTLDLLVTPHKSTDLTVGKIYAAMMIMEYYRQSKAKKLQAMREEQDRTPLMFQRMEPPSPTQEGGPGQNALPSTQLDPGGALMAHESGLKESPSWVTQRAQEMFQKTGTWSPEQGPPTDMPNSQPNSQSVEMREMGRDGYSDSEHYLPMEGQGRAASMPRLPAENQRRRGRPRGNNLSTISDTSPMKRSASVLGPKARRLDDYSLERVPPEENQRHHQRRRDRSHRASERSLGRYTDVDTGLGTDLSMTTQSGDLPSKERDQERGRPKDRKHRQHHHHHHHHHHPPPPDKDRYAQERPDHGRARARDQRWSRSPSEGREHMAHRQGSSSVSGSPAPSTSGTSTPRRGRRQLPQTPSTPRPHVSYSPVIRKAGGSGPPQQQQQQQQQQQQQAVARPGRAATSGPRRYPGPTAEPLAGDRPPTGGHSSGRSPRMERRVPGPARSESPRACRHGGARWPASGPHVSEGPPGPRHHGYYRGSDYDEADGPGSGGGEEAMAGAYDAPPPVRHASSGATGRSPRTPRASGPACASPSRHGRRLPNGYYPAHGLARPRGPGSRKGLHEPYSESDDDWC
T3 sequence (Q13936 whole entry): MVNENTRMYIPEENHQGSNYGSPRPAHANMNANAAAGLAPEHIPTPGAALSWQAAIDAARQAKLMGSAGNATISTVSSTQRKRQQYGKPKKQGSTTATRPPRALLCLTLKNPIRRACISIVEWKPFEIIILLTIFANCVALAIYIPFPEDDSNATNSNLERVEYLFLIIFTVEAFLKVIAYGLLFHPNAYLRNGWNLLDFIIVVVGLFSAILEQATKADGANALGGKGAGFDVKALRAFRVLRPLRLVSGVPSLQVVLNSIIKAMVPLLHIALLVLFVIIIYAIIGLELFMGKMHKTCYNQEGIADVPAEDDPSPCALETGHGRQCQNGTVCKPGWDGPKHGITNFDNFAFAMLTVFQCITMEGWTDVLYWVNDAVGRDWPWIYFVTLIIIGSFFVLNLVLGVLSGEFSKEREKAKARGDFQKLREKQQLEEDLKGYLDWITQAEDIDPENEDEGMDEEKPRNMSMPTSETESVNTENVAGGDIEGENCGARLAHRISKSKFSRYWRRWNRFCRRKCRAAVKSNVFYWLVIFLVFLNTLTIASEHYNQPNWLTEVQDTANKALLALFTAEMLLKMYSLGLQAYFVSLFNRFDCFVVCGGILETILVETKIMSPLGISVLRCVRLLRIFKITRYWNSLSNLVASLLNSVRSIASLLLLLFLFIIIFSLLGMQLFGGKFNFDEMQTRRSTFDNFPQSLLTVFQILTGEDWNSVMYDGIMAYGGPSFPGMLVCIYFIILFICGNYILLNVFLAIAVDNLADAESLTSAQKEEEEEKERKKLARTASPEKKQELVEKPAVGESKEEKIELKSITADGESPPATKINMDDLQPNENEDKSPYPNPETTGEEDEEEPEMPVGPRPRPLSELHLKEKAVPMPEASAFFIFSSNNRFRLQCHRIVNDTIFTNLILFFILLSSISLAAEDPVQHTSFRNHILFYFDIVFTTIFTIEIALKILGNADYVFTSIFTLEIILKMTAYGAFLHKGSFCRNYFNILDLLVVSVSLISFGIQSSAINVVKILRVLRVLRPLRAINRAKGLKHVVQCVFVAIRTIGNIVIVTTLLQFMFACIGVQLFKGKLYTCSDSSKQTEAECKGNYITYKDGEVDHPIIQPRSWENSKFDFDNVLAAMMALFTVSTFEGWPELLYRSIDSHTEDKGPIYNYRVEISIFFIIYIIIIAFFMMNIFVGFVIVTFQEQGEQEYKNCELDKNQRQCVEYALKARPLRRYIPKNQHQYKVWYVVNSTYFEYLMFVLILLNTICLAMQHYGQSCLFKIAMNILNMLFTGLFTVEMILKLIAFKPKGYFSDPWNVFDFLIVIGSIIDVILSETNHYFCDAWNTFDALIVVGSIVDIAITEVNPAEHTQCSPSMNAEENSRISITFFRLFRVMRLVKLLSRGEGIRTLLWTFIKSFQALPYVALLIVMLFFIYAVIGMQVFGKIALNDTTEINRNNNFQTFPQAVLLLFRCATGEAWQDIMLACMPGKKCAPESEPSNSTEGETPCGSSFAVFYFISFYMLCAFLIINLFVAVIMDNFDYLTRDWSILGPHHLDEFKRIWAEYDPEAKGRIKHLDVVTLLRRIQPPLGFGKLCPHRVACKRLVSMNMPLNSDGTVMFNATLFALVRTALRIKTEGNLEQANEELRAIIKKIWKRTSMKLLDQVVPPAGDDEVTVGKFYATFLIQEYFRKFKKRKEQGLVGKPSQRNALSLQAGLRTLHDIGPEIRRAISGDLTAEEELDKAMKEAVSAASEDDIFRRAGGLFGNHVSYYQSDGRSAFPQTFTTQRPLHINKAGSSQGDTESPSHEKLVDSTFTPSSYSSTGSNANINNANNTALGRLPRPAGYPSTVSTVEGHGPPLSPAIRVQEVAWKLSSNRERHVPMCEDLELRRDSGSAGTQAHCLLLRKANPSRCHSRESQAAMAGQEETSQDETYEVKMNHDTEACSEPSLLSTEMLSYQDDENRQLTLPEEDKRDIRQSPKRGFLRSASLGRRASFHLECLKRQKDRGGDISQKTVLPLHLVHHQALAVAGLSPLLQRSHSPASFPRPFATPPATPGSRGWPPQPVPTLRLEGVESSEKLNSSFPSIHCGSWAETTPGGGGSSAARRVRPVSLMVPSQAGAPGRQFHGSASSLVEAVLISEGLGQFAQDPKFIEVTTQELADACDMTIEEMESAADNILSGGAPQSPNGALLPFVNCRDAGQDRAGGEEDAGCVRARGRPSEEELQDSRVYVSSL

For `O=C(CCOc1ccc(Cl)cc1Cl)Nc1nnc(C(F)(F)F)s1` [NT044, N-2-(5-trifluoromethyl-1,3,4-thiadiazolyl)-3-(2,4-dichlorophenoxy) propionyl amide], the IC50 in assay [1] turned out to be 6.4 µM; in assay [2], 0.14 µM; in assay [4], 2.06 µM. Further, the “selectivity for N-type channels versus L-type and P/Q-type (in words)” value in assay [3] is “somewhat selective for N-type channels”.
The corresponding values for `O=C(COC(c1ccc(Cl)cc1)c1ccc(Cl)cc1)Nc1ncc([N+](=O)[O-])s1` [NT051] are 6.8 µM, 0.13 µM, 1.91 µM and “somewhat selective for N-type channels”.
